Values of other authors as cited in patent US7674824B2, “Stable oxaliplatin formulation” (Fresenius Kabi Oncology Limited, priority 2006, dated 2010).

Conditions: 0.9% sodium chloride solution

For `O=C1[O][Pt]2([NH][C@@H]3CCCC[C@H]3[NH]2)[O]C1=O` [oxaliplatin], the “Stability after reconstitution in chloride-containing solution (in words)” value is listed as “rapidly decomposing”.
